Data: patent US11684614B2, “Formulations of hydroxypyridonate actinide/lanthanide decorporation agents” (priority 2017, dated 2023)
Several values for one entry are separate records, joined by “and”; a condition that tells them apart may be missing. Equal values may be shown once.

Assay: Repeated-treatment efficacy for removing an intravenous dose of 238Pu (excretion, tissue retention, clinical observations), female and male arms
Type: in vivo, Swiss-Webster mice
Details: for % Recovered Dose - Feces per Day: male mice, listed as 3,4,3-LI(1,2-HOPO)
Procedure: The objective of this study was to characterize the efficacy of 3,4,3-L1(1,2-HOPO) at enhancing elimination from an internal plutonium burden in female and male Swiss-Webster mice administered a soluble citrate complex of ^238Pu and treated multiple times, starting at 24 hours after the exposure. Efficacy was evaluated by comparing the tissue contents, urinary and fecal excretions of ^238Pu in treated animals versus untreated animals.
The medical countermeasure 3,4,3-L1(1,2-HOPO) was administered parenterally (ip) or orally (po) via consecutive injections or gavages (six daily or twelve twice daily) starting at 24 hours post contamination at the following four selected doses: 30 μmol/kg ip, 150 μmol/kg po, 300 μmol/kg po, and 600 μmol/kg po (equivalent to respective approximate human doses range of […], using the accepted conversion system of mouse doses into human equivalent doses—HED—based on body surface area). Oral doses also included the permeability enhancer selected during formulation development work.
• Challenge isotope: ^238Pu • Challenge dose: 25 nCi (i.e., approximately 0.8 μCi/kg) • Route of contamination: Intravenous (iv) tail-vein • Route of treatment: Intraperitoneal Injection (ip) or Oral (po) • Frequency of treatment: Multiple (once- or twice-daily for 6 days) doses, starting 24 hr postcontamination • Treatment dose calculation: Dose calculations (mg/kg or μmol/kg) for the decorporation agent were based on the individual body weight measured after contamination. • Study Duration: 11 days, in-life
c. […] Test article and control dose formulations were prepared within 1 day of dose administration, by weighing out the appropriate amount of test article, dispersing in vehicle. For ip solutions, the test article was used alone, while for oral suspensions, a mixture of test article and excipient (90:10, w:w) was used. The pH was adjusted to 7.0-7.4 for ip administration and 5.0-5.5 for oral administration with sterile NaOH. Dose formulations were prepared at room temperature and filter-sterilized. • Storage: 2-8° C.; refrigerated; protected from light. • Characterization: The concentration of each test article formulation was verified by high-performance liquid chromatography-mass spectrometry. • Test Article Handling: Test, reference, and control article formulations were handled with the use of eye protection, gloves, and a protective laboratory coat. • Correct Dose Assurance: The test article was weighed with calibrated balances. The administration of each dose formulation was properly documented, and the amount administered to each animal recorded.
e. Experimental Procedures (In-Life Evaluations and Euthanasia) • Contamination: Single administration by intravenous (iv) tail-vein injection (0.2 mL injection volume) under isoflurane anesthesia. Three standard 0.2 mL injections were performed into polyethylene bottles and pre-loaded with aliquots of concentrated nitric acid on each injection day. Six female and six male mice were culled for necropsy 1 hr post-contamination and were used as standards. A11 standards were processed and counted together with the final samples to allow verification of the contamination dose. • Dose Administration: Single administration by intraperitoneal injection (ip) or oral gavage (po) under isoflurane anesthesia. • Mortality/Morbidity: Assessed at least once daily. • Clinical Observations: Recorded once daily (4 hr post-dose on day of treatment), or more often as clinical signs warranted. […]

With `O=C(NCCCN(CCCCN(CCCNC(=O)c1cccc(=O)n1O)C(=O)c1cccc(=O)n1O)C(=O)c1cccc(=O)n1O)c1cccc(=O)n1O` [3,4,3-L1(1,2-HOPO)] the “% Recovered Dose - Feces per Day” value (group I, feces day 1, Day 11 necropsy) was 9.44% and 11.73% and 10.15% and 5.92% and 9.00% and 6.11% and 8.55% and 9.19%, the “% Recovered Dose - Feces per Day” value (group I, feces day 3, Day 11 necropsy) was 7.33% and 7.00% and 5.92% and 6.28% and 9.54% and 7.12% and 7.60% and 4.73% and the “% Recovered Dose - Feces per Day” value (group I, feces day 4, Day 11 necropsy) was 4.73% and 4.29% and 4.45% and 3.39% and 5.21% and 4.16% and 3.65% and 3.13%. For the same molecule, the “% Recovered Dose - Feces per Day” value (group I, feces day 5, Day 11 necropsy) was 2.15% and 1.67% and 2.13% and 2.90% and 1.73% and 2.06% and 1.56% and 2.26%, the “% Recovered Dose - Feces per Day” value (group I, feces day 6, Day 11 necropsy) was 1.96% and 1.64% and 1.89% and 2.15% and 2.00% and 1.56% and 1.92% and 1.66% and the “% Recovered Dose - Feces per Day” value (group I, feces day 7, Day 11 necropsy) was 1.48% and 2.52% and 0.83% and 1.51% and 0.94% and 1.29% and 1.15% and 1.02%. For the same molecule, the “% Recovered Dose - Feces per Day” value (group I, feces day 8, Day 11 necropsy) was 0.86% and 0.84% and 0.55% and 0.76% and 1.22% and 0.87%, the “% Recovered Dose - Feces per Day” value (group I, feces day 9, Day 11 necropsy) was 0.53% and 0.71% and 0.43% and 0.64% and 0.57% and 0.47% and 0.49% and the “% Recovered Dose - Feces per Day” value (group I, feces day 10, Day 11 necropsy) was 0.46% and 0.52% and 0.43% and 0.45% and 0.40% and 0.47% and 0.36%. For the same molecule, the “% Recovered Dose - Feces per Day” value (group I, feces day 11, Day 11 necropsy) was 0.47% and 0.38% and 0.37% and 0.43% and 0.48% and 0.44% and 0.50%, the “% Recovered Dose - Feces per Day” value (group L, feces day 2, Day 11 necropsy) was 9.49% and 10.37% and 11.59% and 15.06% and 13.00% and 13.15% and 16.38% and 8.84% and the “% Recovered Dose - Feces per Day” value (group L, feces day 3, Day 11 necropsy) was 2.02% and 3.23% and 3.48% and 4.47% and 2.87% and 3.37% and 4.43% and 2.71%. The “% Recovered Dose - Feces per Day” value (group L, feces day 4, Day 11 necropsy) was 1.98% and 2.69% and 3.71% and 6.81% and 3.67% and 4.04% and 3.55% and 3.76%, the “% Recovered Dose - Feces per Day” value (group L, feces day 5, Day 11 necropsy) was 1.04% and 1.47% and 2.57% and 2.42% and 1.75% and 1.82% and 2.26% and 1.72% and the “% Recovered Dose - Feces per Day” value (group L, feces day 6, Day 11 necropsy) was 3.32% and 1.94% and 2.97% and 2.78% and 2.36% and 3.15% and 2.15% and 2.74%. For the same molecule, the “% Recovered Dose - Feces per Day” value (group L, feces day 7, Day 11 necropsy) was 1.56% and 1.72% and 1.53% and 1.45% and 2.10% and 1.44% and 1.80% and 1.29%, the “% Recovered Dose - Feces per Day” value (group L, feces day 8, Day 11 necropsy) was 1.03% and 1.27% and 1.54% and 1.58% and 1.33% and 1.26% and 1.23% and 0.92% and the “% Recovered Dose - Feces per Day” value (group L, feces day 9, Day 11 necropsy) was 0.88% and 0.94% and 0.96% and 0.57% and 1.17% and 1.08% and 0.78%. The “% Recovered Dose - Feces per Day” value (group L, feces day 10, Day 11 necropsy) was 0.60% and 0.98% and 0.96% and 0.65% and 0.99% and 1.01% and 1.02% and 0.90%, the “% Recovered Dose - Feces per Day” value (group L, feces day 11, Day 11 necropsy) was 0.63% and 0.89% and 0.79% and 0.66% and 0.87% and 0.84% and the “% Recovered Dose - Feces per Day” value (group M, feces day 2, Day 11 necropsy) was 16.84% and 15.20% and 15.54% and 13.29% and 15.04% and 19.29% and 14.53% and 19.54%. The “% Recovered Dose - Feces per Day” value (group M, feces day 3, Day 11 necropsy) was 4.32% and 6.13% and 4.17% and 2.65% and 4.16% and 6.33% and 4.24% and 3.82%, the “% Recovered Dose - Feces per Day” value (group M, feces day 4, Day 11 necropsy) was 3.42% and 4.94% and 4.01% and 4.02% and 6.06% and 4.40% and 3.22% and 2.93% and the “% Recovered Dose - Feces per Day” value (group M, feces day 5, Day 11 necropsy) was 1.00% and 2.50% and 1.52% and 1.62% and 1.76% and 1.90% and 1.20% and 1.08%. For the same molecule, the “% Recovered Dose - Feces per Day” value (group M, feces day 6, Day 11 necropsy) was 10.71% and 2.32% and 2.47% and 1.70% and 3.63% and 2.41% and 1.58% and 1.99%, the “% Recovered Dose - Feces per Day” value (group M, feces day 7, Day 11 necropsy) was 5.02% and 2.31% and 1.09% and 1.15% and 1.51% and 1.35% and 0.86% and 1.01% and the “% Recovered Dose - Feces per Day” value (group M, feces day 8, Day 11 necropsy) was 1.81% and 1.55% and 1.22% and 0.94% and 1.24% and 2.07% and 0.87% and 1.10%. The “% Recovered Dose - Feces per Day” value (group M, feces day 9, Day 11 necropsy) was 1.01% and 1.12% and 0.73% and 0.57% and 0.96% and 0.64% and 0.76%, the “% Recovered Dose - Feces per Day” value (group M, feces day 10, Day 11 necropsy) was 0.48% and 0.47% and 0.92% and 0.59% and 0.65% and 1.22% and 0.76% and 0.85% and the “% Recovered Dose - Feces per Day” value (group M, feces day 11, Day 11 necropsy) was 0.57% and 0.46% and 0.82% and 0.41% and 0.70% and 1.12% and 0.68% and 1.01%. For the same molecule, the “increase in total 238Pu excretion compared to the control groups” value (male, 6 daily oral treatments, 600 μmol/kg, 11 days post-contamination) was “up to 156%”, the “tissue content of 238Pu compared to saline control group” value (male, all analyzed tissues, all dosing regimens) was “large reductions” and the “full body content of 238Pu compared to saline control groups” value (male, all treated groups) was “significant reductions”. The “decrease in body burden compared to the control groups” value (male, once-daily oral 600 μmol/kg, 11 days post-contamination) was “up to 48%”, the “decorporation efficacy relative to parenteral DTPA” value (male, oral once-daily 300 and 600 μmol/kg) was “equivalent to that of parenteral treatment with DTPA” and the 238Pu elimination enhancement (male, oral twice-daily 150 and 300 μmol/kg or once-daily 300 and 600 μmol/kg, 7 days post-contamination) was “significant”.
